Results on 35 compounds are retold here after US10227345B2, “Compounds and methods for inhibiting fascin” (Cornell University, priority 2014, dated 2019).

Where only a bound is given, the exact number is not on record here.

By inhibition is commonly meant the change of the read-out against control, counted positive when it falls.

The target of the assay is T1, human fascin 1 (Homo sapiens, UniProt Q16658).
T1 construct: GST (N, cleaved yes); made in house; host or cells: Escherichia coli BL21/DE3 (pGEX4T-fascin 1 plasmid)
The assay is described as follows: Fascin inhibition (actin bundling) assay, image-based. The class given is biochemical. The conditions noted are these: in the presence of 50 μm of the compound relative to bundle activity when the compound was not present; read-out: Inhibition (percentage reduction of bundle activity). The protocol:
Recombinant human fascin 1 was expressed as a GST fusion protein in BL21 Escherichia coli. One liter of 2YT medium with ampicillin was inoculated overnight with 3 mL of BL21/DE3 culture transformed with pGEX4T-fascin 1 plasmid and grown at 37° C. until attenuance at 600 nm (D600) reached about 0.8. The culture was then transferred to 18° C. and induced by the addition of 0.1 mM isopropyl β-d-thiogalactoside (IPTG) for 12 h. Bacteria were harvested by centrifugation at 5,000 r.p.m. for 10 min. The pellets were suspended in 30 mL of PBS supplemented with 0.2 mM PMSF, 1 mM DTT, 1% (v/v) Triton X-100 and 1 mM EDTA. After sonication, the suspension was centrifuged at 15,000 r.p.m. for 30 min to remove the cell debris. The supernatant was then incubated for 2 h with 4 mL of glutathione beads (Sigma) at 4° C. After extensive washing with PBS, the beads were resuspended in 10 mL of thrombin cleavage buffer (20 mM Tris-HCl pH 8.0, 150 mM NaCl, 2 mM CaCl2, 1 mM DTT). Fascin was released from the beads by incubation overnight with 40-100 U of thrombin at 4° C. After centrifugation, 0.2 mM PMSF was added to the supernatant to inactivate the remnant thrombin activity. The fascin protein was further concentrated with a Centricon® (Boca Raton, Fla.) filter to about 50 mg/mL.
Representative compounds described herein were tested for fascin inhibition activity. Purified fascin protein (15 μL of 0.5 μM) in buffer (100 mM KCl, 20 mM Tris/HCl, pH 7.5, 2 mM MgCl2) was added into each well of a clear 384-well flat-bottom plate (Corning) using Thermo Multidrop Combi (Fisher). Compound solutions (5 mM stock, 180 nL) were pin transferred from stock 384-well plates into the 384-well assay plates and incubated for 30 min. Then 15 μL of 0.5 μM polymerized actin (in 100 mM KCl, 20 mM Tris/HCl, pH 7.5, 2 mM MgCl2, 1 mM DTT, 1 mM ATP) (Cytoskeleton Inc.) was added, resulting in 30 μM final concentration for chemical compounds. […] Mixed solution (25 μL) was then transferred to one well in a black 384-well plate coated with poly-D-lysine, and stained actin bundles or F-actin would stick onto the poly-D-lysine plates. After the plates were thoroughly washed with 1×PBS for 3 times, the plate was imaged using an ImageXpress Micro High Content Screening System (Molecular devices). The images were processed and analyzed using MetaMorph software. The raw image data for each well was background-corrected by subtraction of the median intensities across all wells on the plate. The background-corrected data was used to compute the bundle length for each well. The negative control wells were employed for quality control: multiple DMSO-only control wells (16 wells/plate) were present on each assay plate.

On to `O=C(Nc1nn(Cc2ccc(C(F)(F)F)cc2)c2ccccc12)c1sccc1F` [Compound 37, 3-fluoro-N-(1-(4-(trifluoromethyl)benzyl)-1H-indazol-3-yl)thiophene-2-carboxamide], for which the inhibition at 50 µM is under 10%. Take `O=C(Nc1nn(Cc2ccc(C(F)(F)F)cc2)c2ccccc12)c1ccsc1Cl` [Compound 38, 2-chloro-N-(1-(4-(trifluoromethyl)benzyl)-1H-indazol-3-yl)thiophene-3-carboxamide]: the inhibition at 50 µM was under 10%. The same measure for `O=C(Nc1nn(Cc2ccc(C(F)(F)F)cc2)c2ccccc12)c1ccsn1` [Compound 39, N-(1-(4-(trifluoromethyl)benzyl)-1H-indazol-3-yl)isothiazole-3-carboxamide]: 50%; for `O=C(Nc1nn(Cc2ccc(C(F)(F)F)cc2)c2ccccc12)c1cnco1` [Compound 40, N-(1-(4-(trifluoromethyl)benzyl)-1H-indazol-3-yl)oxazole-5-carboxamide]: 100%; for `O=C(Nc1nn(Cc2ccc(C(F)(F)F)cc2)c2ccccc12)c1sccc1Cl` [Compound 41, 3-chloro-N-(1-(4-(trifluoromethyl)benzyl)-1H-indazol-3-yl)thiophene-2-carboxamide]: under 10%. Regarding `O=C(Nc1nn(Cc2ccc(C(F)(F)F)cc2)c2ccccc12)c1cscc1Br` [Compound 42, 4-bromo-N-(1-(4-(trifluoromethyl)benzyl)-1H-indazol-3-yl)thiophene-3-carboxamide], the inhibition at 50 µM was under 10%. The same measure for `O=C(Nc1nn(Cc2ccc(C(F)(F)F)cc2)c2ccccc12)c1ccccc1Br` [Compound 46, 2-bromo-N-(1-(4-(trifluoromethyl)benzyl)-1H-indazol-3-yl)benzamide]: under 10%.

In the case of `O=C(Nc1nn(Cc2ccc(C(F)(F)F)cc2)c2ccccc12)c1ccccc1OC(F)F` [Compound 47, 2-(difluoromethoxy)-N-(1-(4-(trifluoromethyl)benzyl)-1H-indazol-3-yl)benzamide], the inhibition at 50 µM was under 10%. The same measure for `O=C(Nc1nn(Cc2cccc(C(F)(F)F)c2)c2ccccc12)c1ccoc1` [Compound 48, N-(1-(3-(trifluoromethyl)benzyl)-1H-indazol-3-yl)furan-3-carboxamide]: under 10%; for `O=C(Nc1nn(Cc2ccc(C(F)(F)F)cc2)c2ccccc12)c1ccccc1C(F)(F)F` [Compound 50, 2-(trifluoromethyl)-N-(1-(4-(trifluoromethyl)benzyl)-1H-indazol-3-yl)benzamide]: under 10%; for `COc1cscc1C(=O)Nc1nn(Cc2ccc(C(F)(F)F)cc2)c2ccccc12` [Compound 51, 4-methoxy-N-(1-(4-(trifluoromethyl)benzyl)-1H-indazol-3-yl)thiophene-3-carboxamide]: under 10%.

`O=C(Nc1nn(Cc2ccc(C(F)(F)F)cc2)c2ccccc12)c1ccccc1OC(F)(F)F` [Compound 52, 2-(trifluoromethoxy)-N-(1-(4-(trifluoromethyl)benzyl)-1H-indazol-3-yl)benzamide]: the inhibition at 50 µM is under 10%. With `O=C(Nc1nn(Cc2ccc(C(F)(F)F)cc2)c2ccccc12)c1cnccn1` [Compound 53, N-(1-(4-(trifluoromethyl)benzyl)-1H-indazol-3-yl)pyrazine-2-carboxamide] the figure was under 10%; with `O=C(Nc1nn(Cc2ccc(C(F)(F)F)cc2)c2ccccc12)c1cccnc1` [Compound 54, N-(1-(4-(trifluoromethyl)benzyl)-1H-indazol-3-yl)nicotinamide], under 10%; with `O=C(Nc1nn(Cc2ccc(C(F)(F)F)cc2)c2ccccc12)c1ccccn1` [Compound 55, N-(1-(4-(trifluoromethyl)benzyl)-1H-indazol-3-yl)picolinamide], under 10%.

`O=C(Nc1nn(Cc2ccc(C(F)(F)F)cc2)c2ccccc12)c1cncnc1` [Compound 56, N-(1-(4-(trifluoromethyl)benzyl)-1H-indazol-3-yl)pyrimidine-5-carboxamide]: the inhibition at 50 µM came out at 90%. With `O=C(Nc1nn(Cc2ccccc2C(F)(F)F)c2ccccc12)c1ccoc1` [Compound 57, N-(1-(2-(trifluoromethyl)benzyl)-1H-indazol-3-yl)furan-3-carboxamide] the figure was under 10%; with `O=C(Nc1nn(Cc2ccccc2)c2ccccc12)c1ccoc1` [Compound 58, N-(1-benzyl-1H-indazol-3-yl)furan-3-carboxamide], under 10%. With `Nc1nn(Cc2ccc(C(F)(F)F)cc2)c2ccccc12` [Compound 59, 1-(4-(trifluoromethyl)benzyl)-1H-indazol-3-amine] the figure was under 10%; with `O=C(Nc1n[nH]c2ccccc12)c1ccoc1` [Compound 62, N-(1H-indazol-3-yl)furan-3 carboxamide], under 10%.

For `Nc1nn(Cc2ccc(Cl)cc2)c2ccccc12` [Compound 63, 1-(4-chlorobenzyl)-1H-indazol-3-amine], the inhibition at 50 µM was under 10%. With `O=C(Nc1nn(Cc2ccc(Cl)cc2)c2ccccc12)c1ccoc1` [Compound 64, N-(1-(4-chlorobenzyl)-1H-indazol-3-yl)furan-3-carboxamide] the figure was 50%. With `Cc1occc1C(=O)Nc1nn(Cc2ccc(Cl)cc2)c2ccccc12` [Compound 67, N-(1-(4-chlorobenzyl)-1H-indazol-3-yl)-2-methylfuran-3-carboxamide] the figure was 50%; with `Cc1ncsc1C(=O)Nc1nn(Cc2ccc(Cl)cc2)c2ccccc12` [Compound 68, N-(1-(4-chlorobenzyl)-1H-indazol-3-yl)-4-methylthiazole-5-carboxamide], 50%; with `O=C(Nc1nn(Cc2ccc(Cl)cc2)c2ccccc12)c1cccnn1` [Compound 69, N-(1-(4-chlorobenzyl)-1H-indazol-3-yl)pyridazine-3-carboxamide], 50%.

Turning to `Nc1nn(Cc2ccc(F)cc2)c2ccccc12` [Compound 70, 1-(4-fluorobenzyl)-1H-indazol-3-amine], the inhibition at 50 µM was under 10%. The same measure for `O=C(Nc1nn(Cc2ccc(F)cc2)c2ccccc12)c1ccoc1` [Compound 71, N-(1-(4-fluorobenzyl)-1H-indazol-3-yl)furan-3-carboxamide]: under 10%; for `Cc1nocc1C(=O)Nc1nn(Cc2ccc(F)cc2)c2ccccc12` [Compound 72, N-(1-(4-fluorobenzyl)-1H-indazol-3-yl)-3-methylisoxazole-4-carboxamide]: under 10%. With `O=C(Nc1nn(Cc2ccc(F)cc2)c2ccccc12)c1ccno1` [Compound 73, N-(1-(4-fluorobenzyl)-1H-indazol-3-yl)isoxazole-5-carboxamide] the figure was 50%; with `Cc1occc1C(=O)Nc1nn(Cc2ccc(F)cc2)c2ccccc12` [Compound 74, N-(1-(4-fluorobenzyl)-1H-indazol-3-yl)-2-methylfuran-3-carboxamide], under 10%; with `Cc1ncsc1C(=O)Nc1nn(Cc2ccc(F)cc2)c2ccccc12` [Compound 75, N-(1-(4-fluorobenzyl)-1H-indazol-3-yl)-4-methylthiazole-5-carboxamide], under 10%.

Turning to `O=C(Nc1nn(Cc2ccc(F)cc2)c2ccccc12)c1cccnn1` [Compound 76, N-(1-(4-fluorobenzyl)-1H-indazol-3-yl)pyridazine-3-carboxamide], the inhibition at 50 µM was under 10%.

Turning to `Cc1ccc(Cn2nc(N)c3ccccc32)cc1` [Compound 77, 1-(4-methylbenzyl)-1H-indazol-3-amine], the inhibition at 50 µM is under 10%. As for `Cc1ccc(Cn2nc(NC(=O)c3ccoc3)c3ccccc32)cc1` [Compound 78, N-(1-(4-methylbenzyl)-1H-indazol-3-yl)furan-3-carboxamide], the inhibition at 50 µM is under 10%.

Take `Cc1ccc(Cn2nc(NC(=O)c3conc3C)c3ccccc32)cc1` [Compound 79, 3-methyl-N-(1-(4-methylbenzyl)-1H-indazol-3-yl)isoxazole-4-carboxamide]: the inhibition at 50 µM was under 10%.
